Measured values taken from US20230302032A1, “ANTIBACTERIAL COMPOSITIONS AND METHODS FOR FABRICATING THEREOF” (Harrow IP LLC, priority 2020, published 2023).
Read-outs that look alike come from different tables or passages of the source. One block for each compound: values may come before it.

Key:
[1] = HPLC potency and stability of stored antibiotic solutions; conditions: for Stability of the composition (assay %): composition of Example 2 (with L-glycine);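 for all read-outs here: stored antibiotic compositions assayed by HPLC for remaining potency, USP acceptance requires at least 90% of nominal concentration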
Method: The final product was tested chromatographically (HPLC) for potency and stability after being stored for 6 months. […] According to the USP rules, at least a 90% concentration is required for the product to be acceptable.
The stability of this composition was then monitored for a period of 180 days.

Stability of the composition (assay %) (0 days): 102.3% | Stability of the composition (assay %) (30 days): 106.9% | Stability of the composition (assay %) (60 days): 98.9% | Stability of the composition (assay %) (90 days): 97.6% | Stability of the composition (assay %) (180 days): 97.9%
Compound: NC[C@H]1O[C@H](O[C@H]2[C@H](O)[C@@H](O[C@H]3O[C@H](CO)[C@@H](O)[C@H](N)[C@H]3O)[C@H](N)C[C@@H]2N)[C@H](N)C[C@@H]1O [Tobramycin, (2S,3R,4S,5S,6R)-4-amino-2-{[(1S,2S,3R,4S,6R)-4,6-diamino-3-{[(2R,3R,5S,6R)-3-amino-6-(aminomethyl)-5-hydroxyoxan-2-yl]oxy}-2-hydroxycyclohexyl]oxy}-6-(hydroxymethyl)oxane-3,5-diol]
storage stability alone (180 days): withstood the storage for 180 days very well

Compound: Vancomycin
Stability result, % (HPLC potency) ([1]; Tobramycin-Vancomycin System, aqueous solution, 1.5 % tobramycin, 5% vancomycin, no lidocaine, stored at −4° C. in a dark place, Day 0): 108% | Stability result, % (HPLC potency) ([1]; Tobramycin-Vancomycin System, aqueous solution, 1.5 % tobramycin, 5% vancomycin, no lidocaine, stored at −4° C. in a dark place, Day 30): 108% | Stability result, % (HPLC potency) ([1]; Tobramycin-Vancomycin System, aqueous solution, 1.5 % tobramycin, 5% vancomycin, no lidocaine, stored at −4° C. in a dark place, Day 60): 106% | Stability result, % (HPLC potency) ([1]; Tobramycin-Vancomycin System, aqueous solution, 1.5 % tobramycin, 5% vancomycin, no lidocaine, stored at −4° C. in a dark place, Day 90): 107% | Stability result, % (HPLC potency) ([1]; Tobramycin-Vancomycin System, aqueous solution, 1.5 % tobramycin, 5% vancomycin, no lidocaine, stored at −4° C. in a dark place, Day 120): 91% | Stability result, % (HPLC potency) ([1]; Tobramycin-Vancomycin System, aqueous solution, 1.5 % tobramycin, 5% vancomycin, no lidocaine, stored at −4° C. in a dark place, Day 150): 83% | Stability result, % (HPLC potency) ([1]; Tobramycin-Vancomycin System, aqueous solution, 1.5 % tobramycin, 5% vancomycin, no lidocaine, stored at −4° C. in a dark place, Day 180): 81% | Stability result, % (HPLC potency) ([1]; Vancomycin alone, 5.0 % aqueous solution, stored in a dark place at room temperature, Day 0): 113% | Stability result, % (HPLC potency) ([1]; Vancomycin alone, 5.0 % aqueous solution, stored in a dark place at room temperature, Day 30): 106% | Stability result, % (HPLC potency) ([1]; Vancomycin alone, 5.0 % aqueous solution, stored in a dark place at room temperature, Day 60): 111% | Stability result, % (HPLC potency) ([1]; Vancomycin alone, 5.0 % aqueous solution, stored in a dark place at room temperature, Day 90): 106% | concentration of vancomycin ([1]; after 120 days storage, system having no lidocaine (Table 4)): ≤ 91% | Stability of the composition (assay %) ([1]; Day 0): 104.9% | Stability of the composition (assay %) ([1]; Day 30): 104.0% | Stability of the composition (assay %) ([1]; Day 60): 99.1% | Stability of the composition (assay %) ([1]; Day 90): 99.8% | Stability of the composition (assay %) ([1]; Day 180): 100.5% | storage stability alone ([1]; each antibiotic alone, 180 days (Tables 2 and 3)): withstood the storage for 180 days very well | concentration of vancomycin ([1]; same storage times (120 days and after), lidocaine present in the composition (Table 1)): at least 108%
